Test results reported in PubChem BioAssay AID248 (DTP/NCI, 2004).
Several values for one entry are separate records, joined by “and”; a condition that tells them apart may be missing. Equal entries are not always repeated. Inconclusive results and toxic doses are left out. No stated cut-off is given here; in the data, active means T/C of 150% or more; inactive means T/C below 125%.

Test system: L1210 leukemia ip in BDF1 mice, survival T/C
Assay: NCI In Vivo Anticancer Drug Screen. Data for tumor model L1210 Leukemia (intraperitoneal) in B6D2F1 (BDF1) mice
Conditions: endpoint: mean survival time, higher = longer survival
How it was run: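 In this screen, tumor-bearing mice given compound are compared to those given vehicle, and their survival values are reported as a treated-to-control quotient.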

[1] = dose: 100.0 mg/kg/injection, schedule: Q01DX001 (ip), vehicle: saline
[2] = dose: 200.0 mg/kg/injection, schedule: Q01DX001 (ip), vehicle: saline
[3] = dose: 400.0 mg/kg/injection, schedule: Q01DX001 (ip), vehicle: saline
[4] = dose: 100.0 mg/kg/injection, schedule: Q04DX003 (ip), vehicle: Klucel (hydroxypropylcellulose) (HPC)
[5] = dose: 200.0 mg/kg/injection, schedule: Q04DX003 (ip), vehicle: Klucel (hydroxypropylcellulose) (HPC)
[6] = dose: 400.0 mg/kg/injection, schedule: Q04DX003 (ip), vehicle: Klucel (hydroxypropylcellulose) (HPC)
[7] = dose: 100.0 mg/kg/injection, schedule: Q01DX001 (ip), vehicle: carboxymethylcellulose (CMC)
[8] = dose: 200.0 mg/kg/injection, schedule: Q01DX001 (ip), vehicle: carboxymethylcellulose (CMC)
[9] = dose: 400.0 mg/kg/injection, schedule: Q01DX001 (ip), vehicle: carboxymethylcellulose (CMC)
[10] = dose: 100.0 mg/kg/injection, schedule: Q01DX009 (ip), vehicle: Klucel (hydroxypropylcellulose) (HPC)
[11] = dose: 200.0 mg/kg/injection, schedule: Q01DX009 (ip), vehicle: Klucel (hydroxypropylcellulose) (HPC)
[12] = dose: 50.0 mg/kg/injection, schedule: Q01DX001 (ip), vehicle: saline
[13] = dose: 50.0 mg/kg/injection, schedule: Q04DX003 (ip), vehicle: Klucel (hydroxypropylcellulose) (HPC)
[14] = dose: 50.0 mg/kg/injection, schedule: Q01DX009 (ip), vehicle: saline with Tween-80
[15] = dose: 200.0 mg/kg/injection, schedule: Q04DX003 (ip), vehicle: saline with Tween-80
[16] = dose: 400.0 mg/kg/injection, schedule: Q04DX003 (ip), vehicle: saline with Tween-80
[17] = dose: 400.0 mg/kg/injection, schedule: Q01DX009 (ip), vehicle: Klucel (hydroxypropylcellulose) (HPC)
[18] = dose: 25.0 mg/kg/injection, schedule: Q01DX009 (ip), vehicle: saline
[19] = dose: 50.0 mg/kg/injection, schedule: Q01DX009 (ip), vehicle: saline
[20] = dose: 50.0 mg/kg/injection, schedule: Q04DX003 (ip), vehicle: saline
[21] = dose: 100.0 mg/kg/injection, schedule: Q04DX003 (ip), vehicle: saline
[22] = dose: 200.0 mg/kg/injection, schedule: Q04DX003 (ip), vehicle: saline
[23] = dose: 100.0 mg/kg/injection, schedule: Q04DX003 (ip), vehicle: saline with Tween-80
[24] = dose: 25.0 mg/kg/injection, schedule: Q04DX003 (ip), vehicle: saline
[25] = dose: 100.0 mg/kg/injection, schedule: Q01DX009 (ip), vehicle: saline

Measured: T/C

CC1CN1P(=S)(Oc1ccccc1)N1CC1C (stereo not given)
inactive: dose: 7.0 mg/kg/injection, schedule: Q01DX015 (ip), vehicle: carboxymethylcellulose (CMC) 94 % of control | dose: 13.0 mg/kg/injection, schedule: Q01DX015 (ip), vehicle: carboxymethylcellulose (CMC) 98 % of control | dose: 25.0 mg/kg/injection, schedule: Q01DX015 (ip), vehicle: carboxymethylcellulose (CMC) 97 % of control | dose: 50.0 mg/kg/injection, schedule: Q01DX015 (ip), vehicle: carboxymethylcellulose (CMC) 91 % of control | [1] 105 % of control | dose: 100.0 mg/kg/injection, schedule: Q01DX015 (ip), vehicle: carboxymethylcellulose (CMC) 103 % of control | [2] 102 % of control | dose: 200.0 mg/kg/injection, schedule: Q01DX015 (ip), vehicle: saline 95 % of control | [3] 100 % of control | dose: 400.0 mg/kg/injection, schedule: Q01DX015 (ip), vehicle: saline 91 % of control | dose: 800.0 mg/kg/injection, schedule: Q01DX001 (ip), vehicle: saline 95 % of control | dose: 1600.0 mg/kg/injection, schedule: Q01DX001 (ip), vehicle: saline 103 % of control

CCN(CC)CCOc1ccc(N=N/C(C(C)=O)=C(\C)O)cc1
inactive: dose: 25.0 mg/kg/injection, schedule: Q04DX002 (ip), vehicle: saline 93 % of control and 96 % of control | dose: 50.0 mg/kg/injection, schedule: Q04DX002 (ip), vehicle: saline 101 % of control and 104 % of control

O=C(Nc1cccc(NC(=O)c2ccccc2)c1)c1ccccc1
inactive: [4] 92 % of control | [5] 95 % of control | [6] 90 % of control

O=[N+]([O-])c1ccc(-c2cc3ccccc3[n+]([O-])c2)cc1
inactive: [1] 98 % of control | [2] 101 % of control | [3] 101 % of control

CCC[Si](C)(C)C
inactive: [7] 94 % of control | [8] 96 % of control | [9] 89 % of control

CC1CCc2c(c3c(=O)[nH]c(=O)[nH]c3oc2=O)C1 (stereo not given)
inactive: dose: 50.0 mg/kg/injection, schedule: Q01DX009 (ip), vehicle: Klucel (hydroxypropylcellulose) (HPC) 105 % of control | [10] 93 % of control | [11] 89 % of control

CC1(C)C2CC3C(=CCC4C(=O)C=CC(=O)C43)C1C2 (stereo not given)
inactive: [4] 95 % of control | [5] 93 % of control | [6] 95 % of control

Cc1ccc(C(=O)Nc2ccc3c(c2)Cc2ccccc2-3)cc1
inactive: [12] 101 % of control | [13] 104 % of control | [1] 101 % of control | [4] 100 % of control | [2] 101 % of control | [5] 94 % of control | [3] 95 % of control

N#Cc1c2ccccc2nc2ccccc12
inactive: dose: 50.0 mg/kg/injection, schedule: Q01DX001 (ip), vehicle: carboxymethylcellulose (CMC) 90 % of control | [7] 92 % of control | [8] 90 % of control | [9] 90 % of control

CC(=O)NC1C(OC(C)=O)OC(COC(c2ccccc2)(c2ccccc2)c2ccccc2)C(O)C1OC(C)=O (stereo not given)
inactive: dose: 6.25 mg/kg/injection, schedule: Q01DX009 (ip), vehicle: saline with Tween-80 96 % of control | dose: 12.5 mg/kg/injection, schedule: Q01DX009 (ip), vehicle: saline with Tween-80 93 % of control | dose: 25.0 mg/kg/injection, schedule: Q01DX009 (ip), vehicle: saline with Tween-80 93 % of control | dose: 25.0 mg/kg/injection, schedule: Q04DX003 (ip), vehicle: saline with Tween-80 109 % of control | [14] 93 % of control | dose: 50.0 mg/kg/injection, schedule: Q04DX003 (ip), vehicle: saline with Tween-80 121 % of control | [15] 91 % of control | [16] 88 % of control

O=C(OC1C2C=CC1C1C(=O)NC21)c1ccccc1 (stereo not given)
inactive: dose: 75.0 mg/kg/injection, schedule: Q01DX001 (ip), vehicle: carboxymethylcellulose (CMC) 97 % of control | dose: 150.0 mg/kg/injection, schedule: Q01DX001 (ip), vehicle: carboxymethylcellulose (CMC) 102 % of control | dose: 300.0 mg/kg/injection, schedule: Q01DX001 (ip), vehicle: carboxymethylcellulose (CMC) 113 % of control

O=c1ccccn1C/C(=N\O)c1ccccc1
inactive: [10] 98 % of control | [4] 107 % of control | [11] 100 % of control | [5] 98 % of control | [17] 107 % of control | [6] 100 % of control

COc1cc2c(cc1OC)C(C#N)C2 (stereo not given)
inactive: dose: 6.0 mg/kg/injection, schedule: Q01DX009 (ip), vehicle: Klucel (hydroxypropylcellulose) (HPC) 104 % of control | dose: 12.0 mg/kg/injection, schedule: Q01DX009 (ip), vehicle: Klucel (hydroxypropylcellulose) (HPC) 92 % of control | dose: 12.0 mg/kg/injection, schedule: Q04DX003 (ip), vehicle: Klucel (hydroxypropylcellulose) (HPC) 100 % of control and 105 % of control | dose: 25.0 mg/kg/injection, schedule: Q01DX009 (ip), vehicle: Klucel (hydroxypropylcellulose) (HPC) 100 % of control | dose: 25.0 mg/kg/injection, schedule: Q04DX003 (ip), vehicle: Klucel (hydroxypropylcellulose) (HPC) 100 % of control | [13] 97 % of control and 92 % of control

CC(=O)NN=C(C)C
inactive: [18] 102 % of control | [19] 111 % of control | [20] 99 % of control | [21] 99 % of control | [22] 99 % of control

Cc1nc2nccnc2[nH]1
inactive: dose: 100.0 mg/kg/injection, schedule: Q01DX009 (ip), vehicle: saline sonified 100 % of control | [23] 96 % of control | dose: 200.0 mg/kg/injection, schedule: Q01DX009 (ip), vehicle: saline sonified 92 % of control | [15] 96 % of control | dose: 400.0 mg/kg/injection, schedule: Q01DX009 (ip), vehicle: saline sonified 96 % of control | [16] 96 % of control

O=[N+]([O-])c1ccc(Cl)c2ccncc12
inactive: [14] 102 % of control | dose: 100.0 mg/kg/injection, schedule: Q01DX009 (ip), vehicle: saline with Tween-80 105 % of control | dose: 200.0 mg/kg/injection, schedule: Q01DX009 (ip), vehicle: saline with Tween-80 105 % of control

CC1=CCCCC1Br (stereo not given)
inactive: [23] 96 % of control | [15] 101 % of control | [16] 98 % of control

CN1CCC=C(CN2c3ccccc3Sc3ccccc32)C1
inactive: [18] 109 % of control | [24] 101 % of control | [19] 119 % of control | [20] 105 % of control | [25] 124 % of control | [21] 103 % of control and 105 % of control

O=C1CCC(N2C(=O)C3C(C2=O)C2(Cl)C(Cl)=C(Cl)C3(Cl)C2(Cl)Cl)C(=O)N1 (stereo not given)
inactive: [21] 94 % of control | [22] 97 % of control

O=C(O)C/C=C/c1ccccc1Br
inactive: dose: 100.0 mg/kg/injection, schedule: Q01DX001 (ip), vehicle: Klucel (hydroxypropylcellulose) (HPC) 91 % of control | dose: 200.0 mg/kg/injection, schedule: Q01DX001 (ip), vehicle: Klucel (hydroxypropylcellulose) (HPC) 101 % of control | dose: 400.0 mg/kg/injection, schedule: Q01DX001 (ip), vehicle: Klucel (hydroxypropylcellulose) (HPC) 95 % of control

Cc1ccc(S(=O)(=O)Oc2ccccc2)cc1
inactive: [10] 96 % of control | [4] 94 % of control | [11] 100 % of control | [5] 94 % of control | [17] 97 % of control | [6] 92 % of control

CC(NC(=O)OCc1ccccc1)C(=O)NC(CC(=O)O)C(=O)O (stereo not given)
inactive: [18] 96 % of control | [24] 93 % of control | [19] 98 % of control | [20] 98 % of control | [25] 93 % of control | [21] 97 % of control

C=CCNC(=S)NCc1cccc2ccccc12
inactive: [10] 98 % of control | [11] 111 % of control | [17] 88 % of control

O=C(/C=C(\S)c1ccccc1)c1ccccc1
inactive: [12] 101 % of control | [1] 104 % of control | [2] 98 % of control | [3] 101 % of control
